Counter-ions that a name gives are not always drawn.
Key:
[1] = tested on: C57BL/KsJ db/db diabetic mice; experiment: Measurement of fasting blood glucose (in vivo efficacy test for blood glucose lowering); details: oral once a day, Noni 100 mg/kg, Metformin 200 mg/kg
Procedure: (§1) An administration sample administered to a diabetic model positive control was a Metformin Tab (metformin hydrochloride, JRP), which is a diabetic drug. A dose was 200 mg/kg body weight of a mouse (denoted as Metformin 200 mg/kg).
(§2) An administration sample administered to a diabetic model fermented noni group was a food composition containing the fermented noni obtained in Example 1. A dose was 100 mg/kg body weight of a mouse (denoted as Noni 100 mg/kg).
(§3) As for the administration method, each administration sample was dissolved in 0.5% carboxymethyl cellulose (CMC) for each dose and orally administered once a day for 6 weeks.
The fasting blood glucose of the experimental animals was measured once a week for 6 weeks using a glucometer. Fasting blood glucose was measured at 1-week (7-day) intervals for 6 weeks (42 days) for each experimental group.

[2] = tested on: C57BL/KsJ db/db diabetic mice; experiment: Oral glucose tolerance test (OGTT); assay type: in vivo; details: db/db mice after 6 weeks oral administration, Noni 100 mg/kg, Metformin 200 mg/kg; for blood glucose decreased (OGTT): glucose 3.0 g/kg oral
Procedure: as §1, §2, §3
After the completion of oral administration for 6 weeks, an oral glucose tolerance test (OGTT) was performed.
After experimental animals were fasted for 12 hours, fasting blood glucose was measured by collecting blood from the tail vein, and then a 50% glucose solution (3.0 g/kg of B.W) was orally administered to all groups, and after 30 minutes, 60 minutes, 120 minutes and 180 minutes, blood glucose was measured using a glucometer.

For CN(C)C(=N)N=C(N)N [Metformin, metformin hydrochloride], the “decrease in fasting blood glucose” value ([1]; after 6 weeks) was 34%, the fasting blood glucose ([1]; for 1 to 6 weeks, FIG. 2) was “consistently low” and the “AUC value decreased (OGTT area under curve)” value ([2]; compared to db/db control, FIG. 4) was 23.3%. The “blood glucose decreased (OGTT)” value ([2]; at 2 hr, compared to db/db control) was 22.9%, the “blood glucose decreased (OGTT)” value ([2]; at 3 hr, compared to db/db control) was 28.5% and the “blood glucose decreased (OGTT)” value ([2]; from 1 hr, compared to blood glucose increased at 0.5 hr in db/db control) was 33.1%.

Source: patent US20220408777A1, “FOOD COMPOSITION FOR PREVENTING AND AM[…] […] NONI AND METHOD FOR PREPARING SAME” (NSTBIO. CO., LTD., priority 2020, published 2022)
